Activity calls are given as the source filed them. No cut-off for these calls is given here.
Experiments:
[1] = Antiproliferative activity against mouse A261 cells assessed as inhibition of cell growth; assay type: functional, cell-based
[2] = Antiproliferative activity against human A549R cells assessed as inhibition of cell growth; assay type: functional, cell-based
[3] = test system: NB-4; experiment: Antiproliferative activity against human NB4 cells assessed as inhibition of cell growth; assay type: functional, cell-based
[4] = test system: A549; experiment: Antiproliferative activity against human A549 cells assessed as inhibition of cell growth; assay type: functional, cell-based
[5] = molecular target: T1, Alpha-ketoglutarate-dependent dioxygenase FTO (Homo sapiens, UniProt Q9C0B1); experiment: Inhibition of FTO in human A549 cells assessed as upregulation of p53 protein expression incubated for 24 hrs by Western blot analysis; assay type: cell-based; conditions: dose 3-9 µM
Target sequence in this assay (Q9C0B1 whole entry, looked up): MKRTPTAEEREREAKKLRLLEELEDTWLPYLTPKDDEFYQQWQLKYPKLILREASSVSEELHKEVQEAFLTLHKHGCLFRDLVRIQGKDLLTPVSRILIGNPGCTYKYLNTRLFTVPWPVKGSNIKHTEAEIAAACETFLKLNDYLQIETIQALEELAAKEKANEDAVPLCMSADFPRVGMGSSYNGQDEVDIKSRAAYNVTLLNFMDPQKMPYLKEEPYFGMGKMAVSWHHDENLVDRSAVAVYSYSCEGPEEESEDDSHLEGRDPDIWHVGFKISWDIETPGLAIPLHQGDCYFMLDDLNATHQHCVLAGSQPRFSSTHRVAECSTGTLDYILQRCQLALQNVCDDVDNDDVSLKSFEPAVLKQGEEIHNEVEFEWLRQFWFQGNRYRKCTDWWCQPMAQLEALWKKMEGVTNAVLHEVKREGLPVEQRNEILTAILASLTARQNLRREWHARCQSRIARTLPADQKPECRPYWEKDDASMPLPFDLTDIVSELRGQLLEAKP

[6] = test system: A549; experiment: Induction of autophagy in human A549 cells assessed as upregulation of LC3-II protein expression at 3 to 9 uM incubated for 24 hrs by Western blot analysis; assay type: functional, cell-based; conditions: dose 3-9 µM
[7] = test system: A549; experiment: Effect on FTO expression in human A549 cells at 3 to 9 uM incubated for 24 hrs by Western blot analysis; assay type: functional, cell-based; conditions: dose 3-9 µM
[8] = Selectivity index, ratio of IC50 for cytotoxicity against HLF cells to IC50 for antiproliferative activity against human A549 cells; assay type: cell-based; conditions: HLF cells versus A549 cells, read-out: Ratio IC50
[9] = molecular target: T1, Alpha-ketoglutarate-dependent dioxygenase FTO; experiment: Inhibition of FTO in human A549 cells assessed as upregulation of gammaH2AX protein expression at 3 to 9 uM incubated for 24 hrs by Western blot analysis; assay type: cell-based; conditions: dose 3-9 µM
Target sequence in this assay (Q9C0B1 whole entry, looked up): as above

[10] = molecular target: T1, Alpha-ketoglutarate-dependent dioxygenase FTO; experiment: Inhibition of human FTO assessed as reduction in enzyme-mediated demethylation of m6A-ssDNA incubated for 2 hrs by PAGE analysis
Target sequence in this assay (Q9C0B1 whole entry): as the sequence (Q9C0B1 whole entry, looked up) above

[11] = test system: A549; experiment: Induction of autophagy in human A549 cells assessed as downregulation of p62 protein expression at 3 to 9 uM incubated for 24 hrs by Western blot analysis; assay type: functional, cell-based; conditions: dose 3-9 µM
[12] = Cytotoxicity against HLF cells assessed as inhibition of cell growth; assay type: toxicity, cell-based; conditions: human
[13] = molecular target: T1, Alpha-ketoglutarate-dependent dioxygenase FTO; experiment: Inhibition of human FTO assessed as reduction in enzyme-mediated demethylation of m6A-ssDNA at 12.5 uM incubated for 2 hrs by PAGE analysis
Target sequence in this assay (Q9C0B1 whole entry, looked up): as above

[14] = test system: A549; experiment: Antiproliferative activity against human A549 cells cultured as 3D spheroids assessed as decrease in multicellular tumor spheroid size at 20 uM treated for 5 days by live-cell phase-contrast microscopy; assay type: functional, cell-based; conditions: time 5.0 day

Compound	IC50 [4]	inhibition [5]	inhibition [9]	IC50 [10]	inhibition [13]	IC50 [1]	IC50 [2]	IC50 [3]	Activity [6]	Activity [7]	selectivity ratio [8]	Activity [11]	IC50 [12]	Activity [14]
NCCN1C(=O)c2cccc3cc(NC(=O)c4ccccn4)cc(c23)C1=O	5.2 µM					4.1 µM	7.3 µM	8.4 µM						
O=C(Nc1cc2c3c(cccc3c1)C(=O)N(CCN1C(=O)C=CC1=O)C2=O)c1ccccn1	> 20 µM					> 20 µM	> 20 µM	> 20 µM						
C#CCN(C)CCN1C(=O)c2cccc3cc([N+](=O)[O-])cc(c23)C1=O	> 20 µM					> 20 µM	> 20 µM	> 20 µM					> 20 µM	
CN(C)CCN1C(=O)c2cccc3cc([N+](=O)[O-])cc(c23)C1=O [MITONAFIDE]	1.5 µM			34.8 µM		2.8 µM	1.8 µM	3.4 µM			1.9		2.8 µM	
C=CC(=O)N(C)CCN1C(=O)c2cccc3cc(N)cc(c23)C1=O	> 20 µM					> 20 µM	> 20 µM	> 20 µM					> 20 µM	
C#CCN(C)CCN1C(=O)c2cccc3cc(NC(=O)C=C)cc(c23)C1=O	> 20 µM					> 20 µM	> 20 µM	13.9 µM					> 20 µM	
C#CCN(C)CCN1C(=O)c2cccc3cc(N)cc(c23)C1=O	> 20 µM					> 20 µM	> 20 µM	> 20 µM					> 20 µM	
CN(C)CCN1C(=O)c2cccc3cc(N)cc(c23)C1=O [AMONAFIDE]	4.3 µM					9.2 µM	9.5 µM	5.7 µM					8.8 µM	
C#CCCC1(CCNCCN2C(=O)c3cccc4cc(NC(=O)c5ccccn5)cc(c34)C2=O)N=N1	> 20 µM					8.5 µM	> 20 µM	10.6 µM						
C=CC(=O)N(C)CCN1C(=O)c2cccc3cc([N+](=O)[O-])cc(c23)C1=O	> 20 µM					> 20 µM	> 20 µM	> 20 µM					> 20 µM	

Continued by falling IC50 [4], values first:

IC50 [4]	inhibition [5]	inhibition [9]	IC50 [10]	inhibition [13]	Compound	IC50 [1]	IC50 [2]	IC50 [3]	Activity [6]	Activity [7]	selectivity ratio [8]	Activity [11]	IC50 [12]	Activity [14]
4.7 µM					C#CCCCCNCCN1C(=O)c2cccc3cc(NC(=O)c4ccccn4)cc(c23)C1=O	5.3 µM	9.5 µM	9.8 µM						
2.9 µM					CNCCN1C(=O)c2cccc3cc(NC(=O)c4ccccn4)cc(c23)C1=O	3.5 µM	7.2 µM	12.9 µM						
2.8 µM	Dose-Dependent Effect	Active	5.7 µM	Active	CNCCN1C(=O)c2cccc3cc([N+](=O)[O-])cc(c23)C1=O	2.5 µM	6.2 µM	7 µM	Active	inactive	2.5	Active	6.9 µM	Active
2.8 µM	Dose-Dependent Effect	Active	4.5 µM	Active	CN(C)CCN1C(=O)c2cccc3cc(NC(=O)c4ccccn4)cc(c23)C1=O	3.3 µM	4.5 µM	1.5 µM	Active	inactive	3.5	Active	9.9 µM	Active

From ChEMBL document CHEMBL5370685, “Novel 1,8-Naphthalimide Derivatives As Antitumor Agents and Potent Demethylase Inhibitors” (ACS Med Chem Lett, 2023)
